Source: article PMC6264549, “Synthesis and Biological Evaluation of 3-Substituted-indolin-2-one Derivatives Containing Chloropyrrole Moieties” (Molecules, 2011)

Experiments:
[1] = system: non-small cell lung cancer (A549); test: MTT cell growth inhibition assay, A549; type: cell-based; details: Homo sapiens, 48 h, A549 cells, two days, read-out: IC50 ± SD A549
Experimental: (§1) The antitumor activities of 14a-r were evaluated in vitro on four tumor cell lines, including non-small cell lung cancer (A549), oral epithelial (KB), melanoma (K111) and large cell lung cancer cell lines (NCI-H460) by the MTT assay, and the results are summarized in Table 1.
(§2) Non-small cell lung cancer (A549), oral epithelial (KB), large cell lung cancer (NCI-H460) and melanoma cell lines (K111) were cultured in Dulbecco’s modified Eagle medium (GIBCO) containing 10% (v/v) inactivated newborn calf serum (Boren Bio-Pharmaceutical Co., Ltd.: Guangzhou, China), […] L-glutamine (SANGON), […] penicillin, 100 µg/mL streptomycin. Cells were grown in a 5% CO2 incubator at 37 °C.
(§3) The antitumor activities were determined by the MTT assay. Cells (2 × 10^3 cells/well) were seeded in 96-well plates. After incubation overnight, each compound, which was dissolved in dimethylsulfoxide (DMSO) and diluted with phosphate buffer solution (PBS), was added to each well and the cells were cultured for another two days at 37 °C. 20 μL (5 mg/mL) MTT solution was added to per well and the culture continued for another 3–4 h. The medium was removed and 100 μL DMSO was added to dissolve formazan crystals. Absorbance was measured at 492 nm using an ELISA reader (Thermo). The antitumor activities were expressed as IC50.

[2] = system: oral epithelial (KB); test: MTT cell growth inhibition assay, KB; type: cell-based; details: Homo sapiens, 48 h, KB cells, two days
Experimental: as §1, §2, §3

[3] = system: melanoma (K111); test: MTT cell growth inhibition assay, K111; type: cell-based; details: 48 h, K111 cells, two days, read-out: IC50 ± SD K111
Experimental: as §1, §2, §3

[4] = system: large cell lung cancer cell lines (NCI-H460); test: MTT cell growth inhibition assay, NCI-H460; type: cell-based; details: Homo sapiens, 48 h, NCI-H460 cells, two days, read-out: IC50 ± SD NCI-H460
Experimental: as §1, §2, §3

[5] = target: VEGFR2 tyrosine kinase (Homo sapiens, UniProt P35968); test: VEGFR2 inhibition assay (ELISA); type: biochemical; details: 5.0 µM ATP, Poly (Glu, Tyr)4:1 substrate, read-out: IC50 ± SD VEGFR2
Experimental: Seven compounds in the 14a–r series with low IC50 values on the tumor cell lines were evaluated for their inhibition of VEGFR2 using an enzyme-linked immunosorbent assay (ELISA), and the data are summarized in Table 2.
The VEGFR2 inhibition assay was performed by enzyme-linked immunosorbent assay (ELISA) in 96-well plates pre-coated with 2.5 µg/well Poly (Glu, Tyr)4:1 as a substrate. Each well was treated with 90 µL of 5.0 µM ATP (Amresco) solution and 10 µL of one of the seven compounds at varying concentrations, which were diluted in reaction buffer (50 mM HEPES pH 7.4, 20 mM MgCl2, 0.1 mM Na3VO4, 1 mM DTT). […] The reaction was initiated by adding 1 µL/well of VEGFR2 tyrosine kinase. After incubation for 1 h at 37 °C, the plates were washed three times with phosphate buffered saline containing 0.1% Tween-20 (T-PBS). Next, anti-phosphotyrosine (PY99; 1:1,000 dilution, 100 μL/well) antibody was added. After 1 h incubation at room temperature, the plates were washed three times, and goat anti-mouse IgG horseradish peroxidase (100 μL/well of 1:2,000 dilution) diluted in T-PBS was added. The plates were reincubated at room temperature for 1 h, and washed as before. Finally, color development solution (0.03% H2O2 and 2 mg/mL o-phenylenediamine in 0.1 M citrate buffer, pH 5.5, 100 µL/well) was added and the plates were incubated at room temperature until color emerged. The reaction was terminated by the addition of 2 M H2SO4 (50 µL/well), and A492 was measured using a tunable wavelength microplate reader (Molecular Devices SPECTRAMAX190). The inhibition rate was calculated using the equation: [1 − (A492/A492 control)] × 100%.

[6] = target: hERG potassium currents (Homo sapiens, UniProt Q12809); test: Inhibition of hERG potassium currents in HEK239 cells (cardiotoxicity)
Chain of hERG potassium currents (Q12809 whole entry): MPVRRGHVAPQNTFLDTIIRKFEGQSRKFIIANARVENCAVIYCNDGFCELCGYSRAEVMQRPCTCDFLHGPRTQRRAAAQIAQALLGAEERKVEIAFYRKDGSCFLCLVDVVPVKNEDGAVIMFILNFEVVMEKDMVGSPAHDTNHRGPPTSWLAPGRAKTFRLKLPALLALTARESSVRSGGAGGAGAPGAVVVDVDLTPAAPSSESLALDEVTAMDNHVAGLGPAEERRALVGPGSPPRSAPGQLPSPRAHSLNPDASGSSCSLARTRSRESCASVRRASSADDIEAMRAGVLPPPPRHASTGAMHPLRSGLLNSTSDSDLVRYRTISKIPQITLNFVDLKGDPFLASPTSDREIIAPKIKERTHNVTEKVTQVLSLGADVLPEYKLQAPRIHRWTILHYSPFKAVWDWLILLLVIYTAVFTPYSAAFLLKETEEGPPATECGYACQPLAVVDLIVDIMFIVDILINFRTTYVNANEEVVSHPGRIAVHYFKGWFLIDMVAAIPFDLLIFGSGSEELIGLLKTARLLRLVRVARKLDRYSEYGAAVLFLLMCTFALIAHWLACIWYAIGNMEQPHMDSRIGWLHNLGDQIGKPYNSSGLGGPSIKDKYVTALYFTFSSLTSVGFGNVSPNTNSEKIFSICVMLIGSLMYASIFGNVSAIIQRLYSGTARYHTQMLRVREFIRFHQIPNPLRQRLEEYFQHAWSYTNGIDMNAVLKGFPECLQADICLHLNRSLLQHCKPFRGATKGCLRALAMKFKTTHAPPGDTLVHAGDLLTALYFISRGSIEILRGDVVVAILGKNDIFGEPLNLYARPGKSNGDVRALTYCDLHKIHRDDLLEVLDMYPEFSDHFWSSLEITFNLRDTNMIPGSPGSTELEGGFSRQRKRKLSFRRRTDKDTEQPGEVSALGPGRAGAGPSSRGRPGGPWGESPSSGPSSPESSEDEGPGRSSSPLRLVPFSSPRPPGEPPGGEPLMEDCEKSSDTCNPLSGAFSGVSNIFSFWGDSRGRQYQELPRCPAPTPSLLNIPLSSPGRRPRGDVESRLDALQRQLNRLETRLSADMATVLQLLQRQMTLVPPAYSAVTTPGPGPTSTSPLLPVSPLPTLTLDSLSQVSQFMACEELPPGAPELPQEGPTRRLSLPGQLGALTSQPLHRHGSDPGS

Chain of VEGFR2 tyrosine kinase (P35968 20-1356): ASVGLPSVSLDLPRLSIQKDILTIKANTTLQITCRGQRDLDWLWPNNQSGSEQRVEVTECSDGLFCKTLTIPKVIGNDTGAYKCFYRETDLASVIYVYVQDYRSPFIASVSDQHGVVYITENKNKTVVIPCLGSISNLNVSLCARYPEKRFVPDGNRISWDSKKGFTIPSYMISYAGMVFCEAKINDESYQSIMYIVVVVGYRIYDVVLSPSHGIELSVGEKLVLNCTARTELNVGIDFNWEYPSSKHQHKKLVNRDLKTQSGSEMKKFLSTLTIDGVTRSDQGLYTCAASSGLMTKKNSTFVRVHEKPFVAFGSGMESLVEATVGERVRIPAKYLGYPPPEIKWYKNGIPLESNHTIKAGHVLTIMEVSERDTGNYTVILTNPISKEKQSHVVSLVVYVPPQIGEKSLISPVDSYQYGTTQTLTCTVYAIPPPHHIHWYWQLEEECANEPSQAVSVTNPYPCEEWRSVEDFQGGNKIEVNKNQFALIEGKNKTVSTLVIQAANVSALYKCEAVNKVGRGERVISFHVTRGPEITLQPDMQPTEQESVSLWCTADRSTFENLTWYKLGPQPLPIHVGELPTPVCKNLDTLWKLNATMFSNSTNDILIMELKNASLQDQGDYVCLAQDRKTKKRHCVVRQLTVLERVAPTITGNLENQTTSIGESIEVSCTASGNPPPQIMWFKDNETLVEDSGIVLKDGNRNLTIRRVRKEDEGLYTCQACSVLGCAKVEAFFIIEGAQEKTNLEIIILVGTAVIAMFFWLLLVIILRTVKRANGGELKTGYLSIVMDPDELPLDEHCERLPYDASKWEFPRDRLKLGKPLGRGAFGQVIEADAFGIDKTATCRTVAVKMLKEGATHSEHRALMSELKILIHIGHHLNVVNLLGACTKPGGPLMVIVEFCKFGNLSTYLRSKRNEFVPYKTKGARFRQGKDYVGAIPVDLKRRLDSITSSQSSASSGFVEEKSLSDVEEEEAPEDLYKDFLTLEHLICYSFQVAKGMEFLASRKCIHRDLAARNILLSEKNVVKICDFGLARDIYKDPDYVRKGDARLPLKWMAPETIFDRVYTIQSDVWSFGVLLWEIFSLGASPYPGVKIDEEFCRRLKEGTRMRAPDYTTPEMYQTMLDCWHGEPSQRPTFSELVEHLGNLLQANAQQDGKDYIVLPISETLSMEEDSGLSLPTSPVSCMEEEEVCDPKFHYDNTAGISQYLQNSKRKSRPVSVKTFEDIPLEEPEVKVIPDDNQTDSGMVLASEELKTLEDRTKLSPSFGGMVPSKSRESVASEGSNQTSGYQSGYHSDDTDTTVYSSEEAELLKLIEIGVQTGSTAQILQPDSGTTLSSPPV

Row | SMILES | IC50 [1] | IC50 [2] | IC50 [3] | IC50 [4] | IC50 [5] | melting point | IC50 [6]
1 | Cc1[nH]c(/C=C2\C(=O)Nc3ccc(F)cc32)c(Cl)c1C(=O)NCCN(C)C [Compound 14f, (Z)-4-Chloro-N-(2-(dimethylamino)ethyl)-5-((5-fluoro-2-oxoindolin-3-ylidene)methyl)-2-methyl-1H-pyrrole-3-carboxamide] | 1690 ± 170 nM | 1560 ± 80 nM | 1350 ± 280 nM | 1670 ± 180 nM | 6.2 ± 0.8 nM | 271.8 to 274.2 °C | –
2 | CCN(CC)CCNC(=O)c1c(C)[nH]c(/C=C2\C(=O)Nc3ccccc32)c1Cl [Compound 14k, (Z)-4-Chloro-N-(2-(diethylamino)ethyl)-2-methyl-5-((2-oxoindolin-3-ylidene)methyl)-1H-pyrrole-3-carboxamide] | > 100000 nM | 5090 ± 1010 nM | > 100000 nM | > 100000 nM | – | 238.5 to 240.1 °C | –
3 | Cc1[nH]c(/C=C2\C(=O)Nc3ccc(F)cc32)c(Cl)c1C(=O)NCCCN(C)C [Compound 14e, (Z)-4-Chloro-N-(3-(dimethylamino)propyl)-5-((5-fluoro-2-oxoindolin-3-ylidene)methyl)-2-methyl-1H-pyrrole-3-carboxamide] | 2330 ± 310 nM | 2880 ± 330 nM | > 100000 nM | > 100000 nM | – | 235.1 to 237.3 °C | –
4 | CCN(CC)CCNC(=O)c1c(Cl)[nH]c(/C=C2\C(=O)Nc3ccc(Br)cc32)c1C [Compound 14j, (Z)-5-((5-bromo-2-oxoindolin-3-ylidene)methyl)-2-chloro-N-(2-(diethylamino)ethyl)-4-methyl-1H-pyrrole-3-carboxamide] | > 100000 nM | 34200 ± 2960 nM | > 100000 nM | > 100000 nM | – | 248.1 to 248.5 °C | –
5 | Cc1[nH]c(/C=C2\C(=O)Nc3ccc(F)cc32)c(Cl)c1C(=O)NCCN1CCOCC1 [Compound 14a, (Z)-4-Chloro-5-((5-fluoro-2-oxoindolin-3-ylidene)methyl)-2-methyl-N-(2-morpholinoethyl)-1H-pyrrole-3-carboxamide] | 1470 ± 130 nM | 52900 ± 7930 nM | > 100000 nM | > 100000 nM | – | 268.5 to 269.7 °C | –
6 | CCN(CC)CCNC(=O)c1c(C)[nH]c(/C=C2\C(=O)Nc3ccc(Cl)cc32)c1Cl [Compound 14i, (Z)-4-Chloro-5-((5-chloro-2-oxoindolin-3-ylidene)methyl)-N-(2-(diethylamino)ethyl)-2-methyl-1H-pyrrole-3-carboxamide] | 320 ± 30 nM | 1150 ± 200 nM | > 100000 nM | > 100000 nM | 11.2 ± 2.6 nM | 246 to 247 °C | –
7 | CCCNC(=O)c1c(C)[nH]c(/C=C2\C(=O)Nc3ccc(F)cc32)c1Cl [Compound 14d, (Z)-4-Chloro-5-((5-fluoro-2-oxoindolin-3-ylidene)methyl)-2-methyl-N-propyl-1H-pyrrole-3-carboxamide] | > 100000 nM | > 100000 nM | > 100000 nM | > 100000 nM | – | > 290 °C | –
8 | CCN(CC)CCNC(=O)c1c(C)[nH]c(/C=C2\C(=O)Nc3ccc(F)cc32)c1Cl [Compound 14h, (Z)-4-Chloro-N-(2-(diethylamino)ethyl)-5-((5-fluoro-2-oxoindolin-3-ylidene)methyl)-2-methyl-1H-pyrrole-3-carboxamide] | 1870 ± 260 nM | 1250 ± 100 nM | 1790 ± 120 nM | 32100 ± 3830 nM | 6.8 ± 0.8 nM | 245.6 to 246.9 °C | 452 nM
9 | Cc1[nH]c(/C=C2\C(=O)Nc3ccc(F)cc32)c(Cl)c1C(=O)N1CCN(C)CC1 [Compound 14b, (Z)-3-((3-Chloro-5-methyl-4-(4-methylpiperazine-1-carbonyl)-1H-pyrrol-2-yl)methylene)-5-fluoroindolin-2-one] | > 100000 nM | > 100000 nM | > 100000 nM | > 100000 nM | – | 276.7 to 278.5 °C | –
10 | Cc1[nH]c(/C=C2\C(=O)Nc3ccc(F)cc32)c(Cl)c1C(=O)NC1CNC1 [Compound 14c, (Z)-N-(azetidin-3-yl)-4-chloro-5-((5-fluoro-2-oxoindolin-3-ylidene)methyl)-2-methyl-1H-pyrrole-3-carboxamide] | 2430 ± 260 nM | 1350 ± 120 nM | 3410 ± 520 nM | 1410 ± 170 nM | 6.8 ± 1.8 nM | 230.5 to 232 °C | –

Second part, led by results:

Row | IC50 [1] | IC50 [2] | IC50 [3] | IC50 [4] | IC50 [5] | melting point | SMILES | IC50 [6]
11 | > 100000 nM | > 100000 nM | > 100000 nM | > 100000 nM | – | 269.1 to 270.3 °C | CCN(CC)CCNC(=O)c1c(Cl)[nH]c(/C=C2\C(=O)Nc3ccc(F)cc32)c1Cl [Compound 14m, (Z)-2,4-Dichloro-N-(2-(diethylamino)ethyl)-5-((5-fluoro-2-oxoindolin-3-ylidene)methyl)-1H-pyrrole-3-carboxamide] | –
12 | 3370 ± 270 nM | 4230 ± 650 nM | > 100000 nM | > 100000 nM | – | 233.5 to 234.7 °C | CCN(CC)CCNC(=O)c1cc(/C=C2\C(=O)Nc3ccc(F)cc32)[nH]c1Cl [Compound 14n, (Z)-2-Chloro-N-(2-(diethylamino)ethyl)-5-((5-fluoro-2-oxoindolin-3-ylidene)methyl)-1H-pyrrole-3-carboxamide] | –
13 | > 100000 nM | 64400 ± 7510 nM | > 100000 nM | > 100000 nM | – | 238.2 to 240 °C | CCN(CC)CCNC(=O)c1c(C)[nH]c(/C=C2\C(=O)Nc3ccc(C)cc32)c1Cl [Compound 14l, (Z)-4-Chloro-N-(2-(diethylamino)ethyl)-2-methyl-5-((5-methyl-2-oxoindolin-3-ylidene)methyl)-1H-pyrrole-3-carboxamide] | –
14 | 16700 ± 2700 nM | 34400 ± 2900 nM | > 100000 nM | > 100000 nM | – | 245.2 to 246.8 °C | CCc1c(/C=C2\C(=O)Nc3ccc(F)cc32)[nH]c(Cl)c1C(=O)NCCN(CC)CC [Compound 14q, (Z)-2-Chloro-N-(2-(diethylamino)ethyl)-4-ethyl-5-((5-fluoro-2-oxoindolin-3-ylidene)methyl)-1H-pyrrole-3-carboxamide] | –
15 | 1410 ± 90 nM | 690 ± 70 nM | 1240 ± 160 nM | 1660 ± 230 nM | 6 ± 1.2 nM | 215 to 216.8 °C | CCNCCNC(=O)c1c(Cl)[nH]c(/C=C2\C(=O)Nc3ccc(F)cc32)c1C [Compound 14p, (Z)-2-Chloro-N-(2-(ethylamino)ethyl)-5-((5-fluoro-2-oxoindolin-3-ylidene)methyl)-4-methyl-1H-pyrrole-3-carboxamide] | –
16 | 2140 ± 260 nM | 1510 ± 110 nM | > 100000 nM | > 100000 nM | – | 243.4 to 244 °C | CCN(CC)CCNC(=O)c1c(Cl)[nH]c(/C=C2\C(=O)Nc3ccc(F)cc32)c1C [Compound 14o, (Z)-2-Chloro-N-(2-(diethylamino)ethyl)-5-((5-fluoro-2-oxoindolin-3-ylidene)methyl)-4-methyl-1H-pyrrole-3-carboxamide] | –
17 | 1490 ± 110 nM | 1430 ± 210 nM | 3720 ± 460 nM | 1220 ± 100 nM | 8.7 ± 1.3 nM | 232 to 233.1 °C | CCNCCNC(=O)c1c(Cl)[nH]c(/C=C2\C(=O)Nc3ccc(F)cc32)c1CC [Compound 14r, (Z)-2-Chloro-4-ethyl-N-(2-(ethylamino)ethyl)-5-((5-fluoro-2-oxoindolin-3-ylidene)methyl)-1H-pyrrole-3-carboxamide] | –
